Assay results taken from patent publication US10520508B2, “Predictive baseline biomarkers for use of vascular disrupting agents” (BIONOMICS LIMITED, priority 2014, dated 2019).

Experiments:
[1] = Disruptor-1 trial: BNC105P in combination with everolimus, maximum tolerated dose; type: in vivo, human (metastatic clear cell renal cell carcinoma patients); details: intravenous infusion over 10 minutes, days 1 and 8 of 21 day cycle, with 10 mg oral everolimus daily
Source text: The objective of the study was to determine the response rate of patients administered BNC105P (vascular disrupting agent) in combination with everolimus (mTOR inhibitor) in patients who had progressed from prior tyrosine kinase inhibitor therapy. In addition, the present inventors determined the improvement in 6-months progression free survival (PFS) with the addition of BNC105P to everolimus (Afinitor). A control group of patients received everolimus alone.
The medical histories of patients were obtained prior to commencement of the study.
Patients in the BNC105P in combination with everolimus study group (the “combination arm”) were administered 10 mg oral everolimus daily. On days 1 and 8 of the 21 day cycle period, the patients were administered 16 mg/m^2 BNC105P, which had been determined to be the maximum tolerated dose, by intravenous infusion over a 10 minute period (FIG. 1). Treatment was continued until disease progressed, intolerable toxicity became apparent, or until consent was withdrawn. A control group of patients were administered with everolimus alone.

[2] = tested on: tumour endothelial cells (activated) and normal endothelial cells (quiescent); assay: Potency against activated (tumour) versus quiescent (normal) endothelial cells; type: cell-based; details: activated vs quiescent endothelial cells
tubulin = assay: Tubulin polymerisation inhibition; type: biochemical

Compound | maximum tolerated dose [1] | selectivity between activated (tumour) and quiescent (normal) endothelial cells [2] | tubulin polymerisation inhibition (tubulin)
COc1cc(C(=O)c2c(C)oc3c(OP(=O)([O-])[O-])c(OC)ccc23)cc(OC)c1OC.[Na+].[Na+] [BNC105P, disodium [6-methoxy-2-methyl-3-(3,4,5-trimethoxybenzoyl)-1-benzofuran-7-yl] phosphate] | 16 mg/m^2 | – | –
COc1ccc(/C=C\c2cc(OC)c(OC)c(OC)c2)cc1O [Combretastatin A4, reference compound] | – | equally potent against quiescent and activated endothelial cells | –
COc1cc(C(=O)c2c(C)oc3c(O)c(OC)ccc23)cc(OC)c1OC [formula III, 2-methyl-7-hydroxy-3-(3,4,5-trimethoxybenzoyl)-6-methoxybenzofuran] | – | show selectivity towards tumor endothelial cells (activated) over normal endothelial cells (quiescent) | potent tubulin polymerisation inhibitors
